US20160115540A1, “PRODRUGS AND DRUGS” (Biogen MA Inc., priority 2013, published 2016)
Counter-ions that a name gives are not always drawn.

Tested on: lymph node
Assay: Transcriptional profiling, chronic dosing, EAE mice: lymph node
Assay type: in vivo
Conditions: for Number of differentially expressed genes identified: Lymph Node: EAE, Chronic Dosing
Excerpt: EAE induction is generally performed by immunization with brain extracts, CNS proteins (such as myelin basic protein), or peptides from such protein emulsified in an adjuvant such as complete Freund's adjuvant, e.g., as described in Linker et al., Brain. 2011 March 134(Pt3): 678-92. […] FIG. 17 depicts exemplary immunophenotyping panels used to analyze various immune cell populations (e.g., T cells, T regulatory cells, NK cells, B cells, myeloid cells). […] The number of independent mice whose tissues were harvested for transcript profiling studies and whose data passed QC is shown in TABLE 15. Animals were exposed to CO2 and whole blood collected via cardiac puncture. Two 100 μl aliquots of whole blood were collected in 1.5 mL microcentrifuge tubes and snap frozen in liquid nitrogen. Peripheral (liver, spleen, kidney and jejunum) and CNS brain (cerebellum, hippocampus, striatum and cortex) tissues were harvested and snap frozen in liquid nitrogen, with special care taken to collect tissues of similar size and from the same location. All samples were stored at -80° C. until RNA extraction was conducted. For RNA preparation, frozen tissues were placed in 2 mL RNAse-free 96-well blocks with 1.5 mL QIAzol Lysis Reagent (QIAgen) and a 3.2 mm stainless steel bead (BioSpec Products, Bartlesville, Okla.). Tissues were disrupted for four cycles of 45 seconds in a Mini-Beadbeater (Biospec Products). RNA was extracted in chloroform and the aqueous phase was mixed with an equal volume of 70% ethanol. Extracted RNA was applied to RNeasy 96 plates and purified by the spin method according to the manufacturer's protocol (RNeasy 96 Universal Tissue Protocol, QIAgen, Hilden Germany). […] Washing and staining of the hybridized arrays were completed as described in the GeneChip Expression analysis technical manual for HT plate arrays using the Genechip® Array Station (Affymetrix, Santa Clara, Calif.) with modifications as described in […] et al. The processed GeneChip® plate arrays were scanned using GeneTitan scanner (Affymetrix, Santa Clara, Calif.). Affymetrix scans were subject to quality control (QC) measures. These tests included a visual inspection of the distribution of raw signal intensities and an assessment of RNA degradation, relative log expression (RLE), and normalized unscaled standard error (NUSE). All sample scans that passed these QC metrics were included in the analysis. All CEL files were subjected to GC-content-based Robust Multi-array Average (GCRMA) normalization (version 2.20.0) (Irizarry R A, et al. Nucleic Acids Res 2003; 31:e15; Li C, et al. Genome Biol 2001; 2:[…]0032). […] Stat Appl Genet Mol Biol 2004; 3:Article3). […] Springer Science+Business Media 2005). Changes in gene expression were studied by applying a linear modeling approach to fit gene expression levels according to the defined groups of samples (e.g. DMF-, MMF-, and Vehicle-treated animals) and Bayesian posterior error analysis as implemented by Smyth (Smyth G K. Stat Appl Genet Mol Biol 2004; 3:Article3). The comparisons considered included: DMF-vs-MMF, DMF-vs-Vehicle, MMF-vs-Vehicle, and Vehicle-vs-Naïve.

[1] = lymph node, 100DMF-vs-90MMF, 7 h
[2] = lymph node, 100DMF-vs-90MMF, 12 h
[3] = lymph node, 100DMF-vs-Veh, 12 h
[4] = lymph node, 100MMF-vs-Veh, 12 h

COC(=O)/C=C/C(=O)OC [DMF, dimethyl fumarate]
Number of differentially expressed genes identified: Lymph Node (100 mpk DMF-vs-90 mpk MMF, 7 h after last dosing): 2
Number of differentially expressed genes identified: Lymph Node (100 mpk DMF-vs-90 mpk MMF, 12 h after last dosing): 6
Number of differentially expressed genes identified: Lymph Node (100 mpk DMF-vs-Vehicle, 7 h after last dosing): 14
Number of differentially expressed genes identified: Lymph Node (100 mpk DMF-vs-Vehicle, 12 h after last dosing): 8
FC BC005685 (1426188_PM_s_at) [1]: −1.54
FC Slc10a6 (1428776_PM_at) [1]: −1.52
FC 1442025_PM_a_at (no gene symbol) [2]: 2.64
FC 1442026_PM_at (no gene symbol) [2]: 2.92
FC Angptl4 (1417130_PM_s_at) [2]: 2.93
FC Cpt1a (1460409_PM_at) [2]: 1.56
FC Klf11 (1437241_PM_at) [2]: 1.91
FC Zbtb16 (1419874_PM_x_at) [2]: 2.14
FC Clec4e (1420330_PM_at) (lymph node, 100DMF-vs-Veh, 7 h): 1.55
FC Clec4d (1420804_PM_s_at) (lymph node, 100DMF-vs-Veh, 7 h): 1.85
FC Gdf3 (1449288_PM_at) (lymph node, 100DMF-vs-Veh, 7 h): −1.57
FC Mmp12 (1449153_PM_at) (lymph node, 100DMF-vs-Veh, 7 h): 3.33
FC Nqo1 (1423627_PM_at) (lymph node, 100DMF-vs-Veh, 7 h): 2.79
FC Osgin1 (1424022_PM_at) (lymph node, 100DMF-vs-Veh, 7 h): 1.54
FC Rnf128 (1449036_PM_at) (lymph node, 100DMF-vs-Veh, 7 h): 1.71
FC Slc11a1 (1420361_PM_at) (lymph node, 100DMF-vs-Veh, 7 h): 1.57
FC Srxn1 (1419942_PM_at) (lymph node, 100DMF-vs-Veh, 7 h): 1.98
FC Srxn1 (1426875_PM_s_at) (lymph node, 100DMF-vs-Veh, 7 h): 1.83
FC Tnfaip2 (1416273_PM_at) (lymph node, 100DMF-vs-Veh, 7 h): 1.82
FC Tnfaip2 (1438855_PM_x_at) (lymph node, 100DMF-vs-Veh, 7 h): 1.52
FC Ugt1a1 /// Ugt1a10 /// Ugt1a2 /// Ugt1a5 /// Ugt1a6a /// Ugt1a6b /// Ugt1a7c /// Ugt1a9 (1424783_PM_a_at) (lymph node, 100DMF-vs-Veh, 7 h): 1.52
FC Ugt1a1 /// Ugt1a10 /// Ugt1a2 /// Ugt1a5 /// Ugt1a6a /// Ugt1a6b /// Ugt1a7c /// Ugt1a9 (1426261_PM_s_at) (lymph node, 100DMF-vs-Veh, 7 h): 1.62
FC 1442025_PM_a_at (no gene symbol) [3]: 2.35
FC 1442026_PM_at (no gene symbol) [3]: 2.48
FC Clec4d (1420804_PM_s_at) [3]: 2.19
FC Gzmk (1422280_PM_at) [3]: 1.92
FC Npas2 (1421037_PM_at) [3]: 1.53
FC Nqo1 (1423627_PM_at) [3]: 1.70
FC Ugt1a1 /// Ugt1a10 /// Ugt1a2 /// Ugt1a5 /// Ugt1a6a /// Ugt1a6b /// Ugt1a7c /// Ugt1a9 (1424783_PM_a_at) [3]: 1.56
FC Zbtb16 (1419874_PM_x_at) [3]: 2.07
Zbtb16 transcript signal, DMF-treated compared to MMF-treated animals (lymph node, chronically dosed EAE mice, 12 h after final dosing): increased signal

COC(=O)/C=C/C(=O)O [MMF, monomethyl fumarate]
Number of differentially expressed genes identified: Lymph Node (90 mpk MMF-vs-Vehicle, 7 h after last dosing): 21
Number of differentially expressed genes identified: Lymph Node (90 mpk MMF-vs-Vehicle, 12 h after last dosing): 7
FC BC005685 (1426188_PM_s_at) (lymph node, 100MMF-vs-Veh, 7 h): 1.54
FC C78662 (1442498_PM_at) (lymph node, 100MMF-vs-Veh, 7 h): 1.68
FC Clec4e (1420330_PM_at) (lymph node, 100MMF-vs-Veh, 7 h): 2.02
FC Clec4e (1420331_PM_at) (lymph node, 100MMF-vs-Veh, 7 h): 1.80
FC Clec4d (1420804_PM_s_at) (lymph node, 100MMF-vs-Veh, 7 h): 2.40
FC Ctgf (1416953_PM_at) (lymph node, 100MMF-vs-Veh, 7 h): 2.34
FC Hs3st1 (1423450_PM_a_at) (lymph node, 100MMF-vs-Veh, 7 h): 1.72
FC Il1f9 1425958_PM_at (lymph node, 100MMF-vs-Veh, 7 h): 1.86
FC Mmp12 (1449153_PM_at) (lymph node, 100MMF-vs-Veh, 7 h): 5.16
FC Nqo1 (1423627_PM_at) (lymph node, 100MMF-vs-Veh, 7 h): 2.59
FC Osgin1 (1424022_PM_at) (lymph node, 100MMF-vs-Veh, 7 h): 1.50
FC Pla2g7 (1430700_PM_a_at) (lymph node, 100MMF-vs-Veh, 7 h): 1.67
FC Rnf128 (1449036_PM_at) (lymph node, 100MMF-vs-Veh, 7 h): 1.81
FC Slc11a1 (1420361_PM_at) (lymph node, 100MMF-vs-Veh, 7 h): 1.57
FC Slc40a1 1448566_PM_at (lymph node, 100MMF-vs-Veh, 7 h): 1.87
FC Slc40a1 (1417061_PM_at) (lymph node, 100MMF-vs-Veh, 7 h): 1.80
FC Srxn1 (1419942_PM_at) (lymph node, 100MMF-vs-Veh, 7 h): 1.93
FC Srxn1 (1426875_PM_s_at) (lymph node, 100MMF-vs-Veh, 7 h): 1.80
FC Tnfaip2 (1416273_PM_at) (lymph node, 100MMF-vs-Veh, 7 h): 1.86
FC Tnfaip2 (1438855_PM_x_at) (lymph node, 100MMF-vs-Veh, 7 h): 1.55
FC Ugt1a1 /// Ugt1a10 /// Ugt1a2 /// Ugt1a5 /// Ugt1a6a /// Ugt1a6b /// Ugt1a7c /// Ugt1a9 (1426261_PM_s_at) (lymph node, 100MMF-vs-Veh, 7 h): 1.55
FC Ccl3 (1419561_PM_at) [4]: 2.22
FC Clec4d (1420804_PM_s_at) [4]: 2.43
FC Kcne3 (1418499_PM_a_at) [4]: 1.56
FC Mmp9 (1416298_PM_at) [4]: 1.82
FC Mmp12 (1449153_PM_at) [4]: 3.95
FC Npas2 (1421037_PM_at) [4]: 1.56
FC Tnfaip2 (1416273_PM_at) [4]: 1.54
